{"source": "patent US11584710B2", "about": "“Compounds for treating infections” (HORITZONTS TECNOLOGICS HUNGARY KORLÁTOLT FELELOSSÉGU …, priority 2017, dated 2023)", "type_in_all_cases": "cell-based", "key": {"[1]": {"experiment": "Cellular viability, CellTiter Glo", "settings": "human; MT-2 cells; concentration required to kill 50% of cells; read-out: CC50 VIH MT-2 μM", "procedure": "All assays for assessing anti-HIV activity were taken in parallel to determine cellular viability of the culture in the presence or absence of different concentrations of the isolated molecule. It was followed exactly the same methodology as in the anti-HIV assay except with the addition of complete DMEM medium instead of supernatant viral, in the same proportion, and the detection of the viability was performed with the viability detection kit CellTiter Glo (Promega), following manufacturer instructions. Viability is directly proportional to the luciferase activity obtained. All data are expressed as percentage relative to a control with DMSO at the same concentration. Antiviral activity and toxicity curves were performed to the compound at different concentrations."}, "C. guillermondii": {"test_system": "C. guillermondii", "experiment": "Antifungal disk diffusion susceptibility test (CLSI M44)", "settings": "C. guillermondii", "procedure": "(§1) Filamentous fungi and yeasts strains, from clinical origin, were supplied by Microbiology Service from The Princess Hospital, Madrid. They are detailed in Table IX.\n(§2) Filamentous fungi and yeast cells suspensions in distilled water was prepared from a culture of 24-48 h, depending on species, in Sabouraud agar. Each suspension was adjusted to a fixed size inoculum of 1-5×10^8 CFU/ml with a spectrophotometer (Ferraro, MJ National Committee for Clinical Laboratory Standards. 2000).\n(§3) Antifungal susceptibility tests were developed following the standardized methodology detailed in document CLSI: M44-4: Method for Antifungal Disk diffusion susceptibility testing of yeasts consisting of disk diffusion on agar Muller-Hinton (supplemented with 2% glucose)."}, "S. cerevisiae": {"test_system": "S. cerevisiae", "experiment": "Antifungal disk diffusion susceptibility test (CLSI M44)", "settings": "Saccharomyces cerevisiae, S. cerevisiae", "procedure": "as §1, §2, §3"}, "C. tropicalis": {"test_system": "C. tropicalis", "experiment": "Antifungal disk diffusion susceptibility test (CLSI M44)", "settings": "Candida tropicalis, C. tropicalis", "procedure": "as §1, §2, §3"}, "A. fumigatus": {"test_system": "A. fumigatus", "experiment": "Antifungal disk diffusion susceptibility test (CLSI M44)", "settings": "Aspergillus fumigatus, A. fumigatus", "procedure": "as §1, §2, §3"}, "C. albicans": {"test_system": "C. albicans", "experiment": "Antifungal disk diffusion susceptibility test (CLSI M44)", "settings": "Candida albicans, C. albicans", "procedure": "as §1, §2, §3"}, "C. lusitaniae": {"test_system": "C. lusitaniae", "experiment": "Antifungal disk diffusion susceptibility test (CLSI M44)", "settings": "Clavispora lusitaniae, C. lusitaniae", "procedure": "as §1, §2, §3"}, "A. niger": {"test_system": "A. niger", "experiment": "Antifungal disk diffusion susceptibility test (CLSI M44)", "settings": "Aspergillus niger, A. niger", "procedure": "as §1, §2, §3"}, "A. flavus": {"test_system": "A. flavus", "experiment": "Antifungal disk diffusion susceptibility test (CLSI M44)", "settings": "Aspergillus flavus, A. flavus", "procedure": "as §1, §2, §3"}, "C. parapsilosis": {"test_system": "C. parapsilosis", "experiment": "Antifungal disk diffusion susceptibility test (CLSI M44)", "settings": "Lodderomyces parapsilosis, C. parapsilosis", "procedure": "as §1, §2, §3"}, "A. terreus": {"test_system": "A. terreus", "experiment": "Antifungal disk diffusion susceptibility test (CLSI M44)", "settings": "Aspergillus terreus, A. terreus", "procedure": "as §1, §2, §3"}, "P. aeruginosa": {"test_system": "P. aeruginosa", "experiment": "Kirby-Bauer disk diffusion susceptibility test", "settings": "300 μg/disc", "procedure": "(§4) Bacterial strains, from clinical origin, were supplied by the National Center for Microbiology, Institute of Health Carlos III (Majadahonda, Madrid). They are detailed in Table 1.\n(§5) Bacterial cells suspension in sterile saline was prepared from a culture of 24-72 h, depending on bacterial species, in Mueller-Hinton Agar with 5% sheep blood. Each suspension was adjusted to a fixed size inoculum of 1-5×10^8 CFU/ml with a spectrophotometer (Ferraro, MJ National Committee for Clinical Laboratory Standards. 2000).\n(§6) Kirby-Bauer disk diffusion susceptibility test protocol was utilized to determine the sensitivity or resistance of pathogenic bacteria against the compounds and others antibiotics. The absence of growth around the disks is an indirect measure of the ability of this compound to inhibit an organism (Kirby, W., et al., Antibiotics Annu. 1956-1957:892). After 18 to 72 hours of incubation at 37° C., with or without CO2, under aerobic or anaerobic conditions, depending on the bacterial species, halo of growth inhibition were obtained and evaluated.\n(§7) Interpretation of susceptibility and resistance was based on the presence or absence of a zone of inhibition surrounding the disk. Kirby-Bauer disk diffusion susceptibility test is a common method which uses antibiotic-impregnated wafers to test whether bacteria are affected by antibiotics. The size of the zone of inhibition depends on how effective the antibiotic is at stopping the growth of the bacterium. A stronger antibiotic will create a larger zone, because a lower concentration of the antibiotic is enough to stop growth.\n(§8) All compounds were tested at 300 μg/disc."}, "A. baumannii": {"test_system": "A. baumannii", "experiment": "Kirby-Bauer disk diffusion susceptibility test", "settings": "300 μg/disc", "procedure": "as §4, §5, §6, §7, §8"}, "HIV": {"test_system": "HIV", "experiment": "Anti-HIV assay, recombinant virus with Renilla reporter gene in MT-2 cells", "settings": "Human immunodeficiency virus 1, MT2, read-out: IC50 VIH MT-2 μM", "from_the_text": "Assessment of in vitro antiviral activity is usually performed to estimate parameters of antiviral potency and efficacy represented by the percentage of inhibition of HIV activity or IC50. The assay utilized is based on the use of recombinant viruses in which the nef gene, […] for in vitro HIV replication, has been replaced by a Renilla reporter gene so that viral replication can be quantified directly (García-Perez J et al, J Med Virol. 2007 February; 79(2):127-37). The assay was performed infecting MT-2 cells or PHA-activated PBMCs/IL-2 with viral supernatants obtained previously. The study was development in AIDS Immunopathology Unit, Nacional Center of Microbiology, Institute of Health Carlos 111, Majadahonda, Madrid, Spain.\nAll data are expressed as percentage relative to a control with DMSO at the same concentration. Antiviral activity and toxicity curves were performed to the compound at different concentrations."}}, "data": [{"smiles": "NNC(=O)C(=O)NNc1ccccc1", "note": "[MSG-119]", "values": [{"measurement": "CC50", "setting": "[1]", "value": "> 100", "unit": "µM"}, {"measurement": "zone of inhibition at 150 µg/disc", "setting": "C. guillermondii; 150 μg/disc", "value": 12, "unit": "mm"}, {"measurement": "zone of inhibition at 500 µg/disc", "setting": "C. guillermondii; 500 μg/disc", "value": "> 40", "unit": "mm"}, {"measurement": "zone of inhibition at 150 µg/disc", "setting": "S. cerevisiae; 150 μg/disc", "value": 26, "unit": "mm"}, {"measurement": "zone of inhibition at 500 µg/disc", "setting": "S. cerevisiae; 500 μg/disc", "value": 35, "unit": "mm"}, {"measurement": "zone of inhibition at 150 µg/disc", "setting": "C. tropicalis; 150 μg/disc", "value": 20, "unit": "mm"}, {"measurement": "zone of inhibition at 500 µg/disc", "setting": "C. tropicalis; 500 μg/disc", "value": "> 40", "unit": "mm"}, {"measurement": "zone of inhibition at 150 µg/disc", "setting": "A. fumigatus; 150 μg/disc", "value": 22, "unit": "mm"}, {"measurement": "zone of inhibition at 500 µg/disc", "setting": "A. fumigatus; 500 μg/disc", "value": "> 40", "unit": "mm"}, {"measurement": "zone of inhibition at 150 µg/disc", "setting": "C. albicans; 150 μg/disc", "value": 21, "unit": "mm"}, {"measurement": "zone of inhibition at 500 µg/disc", "setting": "C. albicans; 500 μg/disc", "value": 24, "unit": "mm"}, {"measurement": "zone of inhibition at 150 µg/disc", "setting": "C. lusitaniae; 150 μg/disc", "value": "< 10", "unit": "mm"}, {"measurement": "zone of inhibition at 500 µg/disc", "setting": "C. lusitaniae; 500 μg/disc", "value": 20, "unit": "mm"}, {"measurement": "zone of inhibition at 150 µg/disc", "setting": "A. niger; 150 μg/disc", "value": 24, "unit": "mm"}, {"measurement": "zone of inhibition at 500 µg/disc", "setting": "A. niger; 500 μg/disc", "value": "> 40", "unit": "mm"}, {"measurement": "zone of inhibition at 150 µg/disc", "setting": "A. flavus; 150 μg/disc", "value": 18, "unit": "mm"}, {"measurement": "zone of inhibition at 500 µg/disc", "setting": "A. flavus; 500 μg/disc", "value": "> 40", "unit": "mm"}, {"measurement": "zone of inhibition at 150 µg/disc", "setting": "C. parapsilosis; 150 μg/disc", "value": 15, "unit": "mm"}, {"measurement": "zone of inhibition at 500 µg/disc", "setting": "C. parapsilosis; 500 μg/disc", "value": "> 40", "unit": "mm"}, {"measurement": "zone of inhibition at 150 µg/disc", "setting": "A. terreus; 150 μg/disc", "value": 20, "unit": "mm"}, {"measurement": "zone of inhibition at 500 µg/disc", "setting": "A. terreus; 500 μg/disc", "value": "> 40", "unit": "mm"}, {"measurement": "Activity detected (mm)", "setting": "P. aeruginosa", "value": 15, "unit": "mm"}, {"measurement": "Activity detected (mm)", "setting": "A. baumannii", "value": 20, "unit": "mm"}, {"measurement": "IC50", "setting": "HIV", "value": 7.11, "unit": "µM"}]}]}
